From patent US20210115406A1, “HOST-BIOME INTERACTIONS” (EMULATE, INC., priority 2018, published 2021)

Tests used:
Airway cells = experiment: Permeability of airway cells to Imipenem on Airway chip; assay type: cell-based; conditions: at lower concentrations
Protocol: More specifically, in one embodiment of an Airway on-chip, duplicate chips are infected with PA 5919 WT or PA 5890 Mutant as described herein. Then, Imipenem is added to apical and basolateral fluids (cell media) for treatment with Imipenem at 50, 100 and 500 μg/ml for 24 hours with at least one chip without Imipenem. At 24 h post treatment, wash cells 3× to remove the test drug, i.e. antibiotic Imipenem. Cells lysed with 1% Triton for 10 minutes on chip, then the lyste is collected from the chip's channels. Lysates are serially diluted for CFU quantification. N=2
Assay readouts: Viability of extracellular bacteria (apical sampling). Viability of intracellular bacteria (cell lysis and sampling). Two-way ANOVA with Dunnett's post-test **<0.05, **<0.001 (compared to untreated).

[1] = tested on: Lamina Propria Immune Cells; experiment: Steroidal treatment of lamina propria immune cells on Intestine-Chip; assay type: cell-based, human; conditions: 10 μM (10X clinically relevant dosage); before and after challenge with PAM2CSK4; ulcerative colitis patients
Caco-2 Intestine-Chip = experiment: Bacterial colonization, attachment and titration on Intestine-Chip; assay type: cell-based, human; conditions: SEM images of the Intestine-Chip
Excerpt: Top Channel: Caco-2. Day 1: Connect to flow. Day 3: Inoculation and Readouts: Imaging; Permeability; Bacterium Titer; etc. Day 8: Inflammatory Challenge. Readouts: Imaging; Permeability; Cytokines; Bacterium Titer; etc. Day 8 +4 hrs: Readouts: Imaging; Permeability; Cytokines; Bacterium Titer; etc. Day 8 +14 hrs: Readouts: Permeability; Cytokines; Effluent Titer; etc. Day 8 +14 hrs: Collect Endpoints: RNA; Immunofluorescence; Adherent Titer; etc.
Barrier function is an indicator of epithelial cell health in the intestine. […] Each bacteria strain was added (inoculated) on chip at a concentration of 1×10^6 mL^−1.
FIG. 44A Bacterial Titration (counts mL^−1) at Day 3 and Day 4 compared to adherent counts at Day 4.
Bacterial Titration. Viable, aerotolerant bifidobacterial strains colonized the Caco-2 Intestine-Chip and could be detected in plate Titers.

Airway On-Chip cells = experiment: TUNEL apoptosis staining on Airway On-Chip; assay type: cell-based; conditions: 3 μM for 3 h at 37° C., positive control
Protocol: One embodiment of an Airway On-Chip is infected as described above for 2 hours and then treated 50 μg/ml tetracycline for 24 h (top and bottom channels under flow) for 24 h in order to limit bacterial replication (to avoid over-replication and cell lifting). Using this methodology, we performed longer infections on an airway chip and avoided cell death at 24 h. At 24 h, chips are fixed with 4% paraformaldehyde for 15 minutes and subsequently permeabilized with 0.25% triton in PBS. Apoptosis staining is performed following the Click-iT™ Plus TUNEL Assay for In Situ Apoptosis Detection, Alexa Fluor 647 assay: Click-iT™ Plus TUNEL Assay, Thermo Fisher Scientific Inc., 6 November 2017.
The TUNEL assay is based on the incorporation of modified dUTPs by the enzyme terminal deoxynucleotidyl transferase (TdT) at the 3′-OH ends of fragmented DNA, a hallmark as well as the ultimate determinate of apoptosis. Click-iT™ Plus TUNEL assay with the Alexa Fluor™ 647 dye is utilized to detect the fragment DNA (purple), nuclei are labelled with DAPI.
Staurosporin, a prototypical ATP-competitive kinase inhibitor, is used as a positive control in this assay. […] As an additional positive control, chips are treated with 1 unit of DNAse I for 30 minutes at room temperature to induce TUNEL positive DNA strand breaks.

For `C[C@@H](O)[C@H]1C(=O)N2C(C(=O)O)=C(SCCN=CN)C[C@H]12` [Imipenem], the “permeability of airway cells to the drug” value (Airway cells) was “impermeable”.
`C[C@]12C=CC(=O)C=C1CC[C@@H]1[C@@H]2C(=O)C[C@@]2(C)[C@H]1CC[C@]2(O)C(=O)CO` [Prednisone] was tested, and the inflammatory responses [1] was “suppresses inflammatory responses”.
For Lactobacillus rhamnosus strain GG [LGG], the “attachment and biofilm formation” value (Caco-2 Intestine-Chip) was “evidence of LGG attachment and biofilm formation”.
`CN[C@@H]1C[C@H]2O[C@@](C)([C@@H]1OC)n1c3ccccc3c3c4c(c5c6ccccc6n2c5c31)C(=O)NC4` [staurosporin, Staurosporin] was tested, and the “apoptotic cell numbers (TUNEL)” value (Airway On-Chip cells) was “increased apoptotic cell numbers”.
